The IC50 is the concentration needed to halve the response being measured. Higher therefore signals weaker potency in that assay. For orientation: EC50 means the concentration needed to bring the measured effect to its halfway point. A high value points to a less potent agent.

The record followed here is US20170360795A1, “TREATMENT OF CANCERS USING PI3 KINASE ISOFORM MODULATORS” (INFINITY PHARMACEUTICALS, INC., priority 2013, published 2017).

A value given as a limit tells only on which side of the number the result lay.

One assay relates to RPMI-8226. Put plainly: combination screen with BTK inhibitors, 72 hours ATPLite. Type of assay: cell-based. Particulars: RPMI-8226 (multiple myeloma); combination with Compound 292. Here is the method: (§1) The method is described as follows. Cells are thawed from a liquid nitrogen preserved state. Once cells have been expanded and divide at their expected doubling times, screening begins. Cells are seeded in growth media in either black 1536-well or 384-well tissue culture treated plates. […] These Tzero (T0) plates are read using ultra-sensitive luminescence on Envision plate readers (Perkin Elmer). […] All data points are collected via automated processes, quality controlled and analyzed using Zalicus software.
(§2) I ranges from 0% (when T=V) to 100% (when T=0). […] The measure of effect in the experiment can be the inhibition of cellular response relative to the untreated level (vehicle alone). For untreated vehicle and treated levels V and T, a fractional inhibition I=1−T/V is calculated. The inhibition ranges from 0% at the untreated level to 100% when T=0. Inhibition levels are negative for agents that actually increase levels. Other effect measures, such as an activity ratio r=T/V may be more appropriate for some assays. When activity ratios (e.g, fold increase over stimulated control) are being used, the effect can be measured using an induction I=ln(T/V). With this definition, all effect expressions are the same as for inhibition.
(§3) Growth Inhibition (GI) is used as a measure of cell viability. […] A GI reading of 100% represents complete growth inhibition −T72 compound-treated and T0 vehicle signals are matched. […] A GI reading of 200% represents complete death of all cells in the culture well. Compounds reaching an activity plateau of GI 200% are considered cytotoxic. GI is calculated by applying the following test and equation: […]
(§4) Combination analysis data were collected in a 6×6 dose matrix. Synergy is calculated by comparing a combination's response to those of its single compound, against the drug-with-itself dose-additive reference model. Deviations from dose additivity may be assessed visually on an isobologram or numerically with a Combination Index (CI). […] Additive effect is CI=1.0. […] Antagonistic effect is CI>1.0.
(§5) To measure combination effects in excess of Loewe additivity, a scalar measure to characterize the strength of synergistic interaction termed the Synergy Score is devised. The Synergy Score is calculated as: […]
(§6) The fractional inhibition for each component agent and combination point in the matrix is calculated relative to the median of all vehicle-treated control wells. The Synergy Score equation integrates the experimentally-observed activity volume at each point in the matrix in excess of a model surface numerically derived from the activity of the component agents using the Loewe model for additivity. […]

A further assay concerns KARPAS-299. Particulars: KARPAS-299 (T cell lymphoma); combination with Compound 292. Here is the method: as §1, §2, §3, §4, §5
(§7) The fractional inhibition for each component agent and combination point in the matrix is calculated relative to the median of all vehicle-treated control wells. The Synergy Score equation integrates the experimentally-observed activity volume at each point in the matrix in excess of a model surface numerically derived from the activity of the component agents using the Loewe model for additivity. Additional terms in the Synergy Score equation (above) are used to normalize for various dilution factors used for individual agents and to allow for comparison of synergy scores across an entire experiment. The inclusion of positive inhibition gating or an Idata multiplier removes noise near the zero effect level, and biases results for synergistic interactions at that occur at high activity levels.

The test system of another assay is OPM-2. Particulars: OPM-2 (multiple myeloma); combination with Compound 292. How it is done:
as §1, §2, §3, §4, §5, §7

A further assay has as its system Jeko-1. Particulars: Jeko-1 (mantle cell lymphoma); combination with Compound 292. Here is the method: as §1, §2, §3, §4, §5, §7
The subject of a further assay is OCI-LY3. Particulars: OCI-Ly3 (DLBCL ABC); combination with Compound 292. Here is the method:
as §1, §2, §3, §4, §5, §7

Another assay concerns HH. Particulars: HH (T cell lymphoma); combination with Compound 292. Here is the method:
as §1, §2, §3, §4, §5, §7

The next assay relates to GRANTA-519. Particulars: GRANTA-519 (mantle cell lymphoma); combination with Compound 292. Here is the method: as §1, §2, §3, §4, §5, §7
For a further assay, the system named is KARPAS-422. Particulars: KARPAS-422 (follicular lymphoma); combination with Compound 292. How it is done:
as §1, §2, §3, §4, §5, §7

The subject of the next assay is U-2932. Particulars: U-2932 (DLBCL ABC); combination with Compound 292. Here is the method: as §1, §2, §3, §4, §5, §7
A further assay deals with HBL-1. Particulars: HBL-1 (DLBCL ABC); combination with Compound 292. Here is the method:
as §1, §2, §3, §4, §5, §7

The subject of the next assay is OCI-Ly7. Particulars: OCI-Ly7 (DLBCL GCB); combination with Compound 292. How it is done: as §1, §2, §3, §4, §5, §7
The test system of another assay is NCI-H929. Particulars: NCI-H929 (multiple myeloma); combination with Compound 292. How it is done: as §1, §2, §3, §4, §5, §7
Another assay concerns the target PI3K δ (Homo sapiens, UniProt O00329). Put plainly: In vitro IC50, PI3K δ (Table 3). Type of assay: biochemical. Set-up: purchased Upstate. The text has this: (§8) Other commercial kits or systems for assaying PI3K activities are available. […] An exemplary system is PI 3-Kinase (human) HTRF™ Assay from Upstate.
The next assay relates to B cell. Put plainly: B cell proliferation EC50 (Table 3). Format: cell-based.
Another assay addresses T1, PI3K β (Homo sapiens, UniProt P42338).
T1 construct: purchased Upstate
Put plainly: In vitro IC50, PI3K β (Table 3). Format: biochemical.
Text: as §8

A further assay addresses T2, PI3K α (Homo sapiens, UniProt P42336).
T2 construct: purchased Upstate
Put plainly: In vitro IC50, PI3K α (Table 3). Type of assay: biochemical.
Text: as §8

The next assay deals with PI3K γ (Homo sapiens, UniProt P48736). Put plainly: In vitro IC50, PI3K γ (Table 3). Type of assay: biochemical. Set-up: purchased Sigma.
Chain of PI3K γ (P48736 whole entry): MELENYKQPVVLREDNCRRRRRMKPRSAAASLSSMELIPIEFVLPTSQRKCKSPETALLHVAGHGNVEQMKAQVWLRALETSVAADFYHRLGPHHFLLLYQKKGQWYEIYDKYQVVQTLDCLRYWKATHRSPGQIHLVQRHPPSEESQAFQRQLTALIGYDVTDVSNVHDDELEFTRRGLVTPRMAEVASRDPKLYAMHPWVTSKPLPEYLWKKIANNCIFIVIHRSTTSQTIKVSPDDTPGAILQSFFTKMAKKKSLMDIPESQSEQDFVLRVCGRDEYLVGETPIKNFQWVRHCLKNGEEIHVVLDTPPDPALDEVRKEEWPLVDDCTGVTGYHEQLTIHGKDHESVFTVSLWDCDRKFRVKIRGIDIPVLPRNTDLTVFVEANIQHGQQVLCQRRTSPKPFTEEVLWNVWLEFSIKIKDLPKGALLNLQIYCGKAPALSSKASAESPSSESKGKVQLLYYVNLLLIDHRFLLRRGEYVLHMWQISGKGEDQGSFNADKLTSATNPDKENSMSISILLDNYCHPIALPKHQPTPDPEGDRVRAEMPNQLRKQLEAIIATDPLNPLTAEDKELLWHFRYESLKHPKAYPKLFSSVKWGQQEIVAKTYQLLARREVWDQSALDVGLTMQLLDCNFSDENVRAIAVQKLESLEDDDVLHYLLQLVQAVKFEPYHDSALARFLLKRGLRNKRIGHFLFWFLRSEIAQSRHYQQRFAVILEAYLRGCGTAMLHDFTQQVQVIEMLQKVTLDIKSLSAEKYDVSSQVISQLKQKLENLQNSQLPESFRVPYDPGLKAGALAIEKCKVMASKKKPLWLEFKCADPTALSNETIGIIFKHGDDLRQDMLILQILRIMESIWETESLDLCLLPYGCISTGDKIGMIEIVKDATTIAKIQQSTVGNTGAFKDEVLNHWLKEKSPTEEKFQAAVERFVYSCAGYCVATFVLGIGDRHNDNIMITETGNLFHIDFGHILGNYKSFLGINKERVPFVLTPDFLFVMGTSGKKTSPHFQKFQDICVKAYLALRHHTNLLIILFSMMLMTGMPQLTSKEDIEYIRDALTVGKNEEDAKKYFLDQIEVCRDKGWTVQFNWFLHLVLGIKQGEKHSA
Text: as §8

For the next assay, the system named is RL. Put plainly: combination screen with BTK inhibitors, 72 hours ATPLite. Format: cell-based. Particulars: RL (follicular lymphoma); combination with Compound 292. Here is the method: as §1, §2, §3, §4, §5, §6
On the technique in general: In ATP-based viability assays light output follows the ATP content of the culture.

T1 sequence (P42338 whole entry): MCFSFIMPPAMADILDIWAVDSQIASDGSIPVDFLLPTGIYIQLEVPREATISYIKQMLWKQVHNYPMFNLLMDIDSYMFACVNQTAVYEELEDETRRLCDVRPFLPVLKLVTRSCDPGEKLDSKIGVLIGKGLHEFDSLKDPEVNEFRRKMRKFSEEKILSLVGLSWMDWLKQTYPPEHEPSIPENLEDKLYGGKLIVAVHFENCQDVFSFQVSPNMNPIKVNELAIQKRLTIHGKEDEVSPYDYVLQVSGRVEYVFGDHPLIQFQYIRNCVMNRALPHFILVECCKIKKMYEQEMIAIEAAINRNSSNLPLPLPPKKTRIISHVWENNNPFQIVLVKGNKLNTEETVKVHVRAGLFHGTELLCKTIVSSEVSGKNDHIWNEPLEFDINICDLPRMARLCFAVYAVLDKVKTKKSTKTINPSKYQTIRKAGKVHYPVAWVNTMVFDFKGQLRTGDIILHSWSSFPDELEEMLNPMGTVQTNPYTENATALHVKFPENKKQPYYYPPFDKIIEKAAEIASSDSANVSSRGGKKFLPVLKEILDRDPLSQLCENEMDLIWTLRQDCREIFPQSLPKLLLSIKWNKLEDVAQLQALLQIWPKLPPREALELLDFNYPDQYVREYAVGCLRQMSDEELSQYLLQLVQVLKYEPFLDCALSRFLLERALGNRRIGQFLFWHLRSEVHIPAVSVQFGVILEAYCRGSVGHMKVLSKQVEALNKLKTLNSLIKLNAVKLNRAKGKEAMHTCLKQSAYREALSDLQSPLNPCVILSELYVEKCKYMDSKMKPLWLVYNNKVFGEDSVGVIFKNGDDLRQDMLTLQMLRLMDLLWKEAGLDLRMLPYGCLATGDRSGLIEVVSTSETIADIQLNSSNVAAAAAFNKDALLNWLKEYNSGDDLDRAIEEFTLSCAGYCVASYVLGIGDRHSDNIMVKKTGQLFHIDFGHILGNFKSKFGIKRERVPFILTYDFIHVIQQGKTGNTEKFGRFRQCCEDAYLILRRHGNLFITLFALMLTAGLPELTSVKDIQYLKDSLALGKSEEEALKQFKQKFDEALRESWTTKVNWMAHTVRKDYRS
T1 sequence (P27986 whole entry partner): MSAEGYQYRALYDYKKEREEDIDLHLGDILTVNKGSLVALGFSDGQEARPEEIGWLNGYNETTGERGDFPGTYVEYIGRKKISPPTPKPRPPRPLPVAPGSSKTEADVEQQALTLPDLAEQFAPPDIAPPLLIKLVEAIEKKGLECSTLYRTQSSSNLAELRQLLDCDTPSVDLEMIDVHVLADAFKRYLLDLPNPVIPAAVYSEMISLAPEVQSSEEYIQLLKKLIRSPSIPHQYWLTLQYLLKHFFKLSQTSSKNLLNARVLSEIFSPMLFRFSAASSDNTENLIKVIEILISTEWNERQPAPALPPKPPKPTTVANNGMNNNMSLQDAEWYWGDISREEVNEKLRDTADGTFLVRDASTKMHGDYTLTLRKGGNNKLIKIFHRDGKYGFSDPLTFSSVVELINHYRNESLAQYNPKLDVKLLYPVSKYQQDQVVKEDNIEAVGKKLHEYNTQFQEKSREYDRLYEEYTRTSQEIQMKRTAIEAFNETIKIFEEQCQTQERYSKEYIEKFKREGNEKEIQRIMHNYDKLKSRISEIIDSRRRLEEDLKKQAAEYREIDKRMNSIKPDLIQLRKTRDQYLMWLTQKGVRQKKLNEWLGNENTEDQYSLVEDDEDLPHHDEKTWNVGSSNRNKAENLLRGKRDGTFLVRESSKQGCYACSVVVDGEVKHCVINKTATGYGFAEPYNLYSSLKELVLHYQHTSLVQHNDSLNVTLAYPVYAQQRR
Chain of PI3K δ (O00329 whole entry): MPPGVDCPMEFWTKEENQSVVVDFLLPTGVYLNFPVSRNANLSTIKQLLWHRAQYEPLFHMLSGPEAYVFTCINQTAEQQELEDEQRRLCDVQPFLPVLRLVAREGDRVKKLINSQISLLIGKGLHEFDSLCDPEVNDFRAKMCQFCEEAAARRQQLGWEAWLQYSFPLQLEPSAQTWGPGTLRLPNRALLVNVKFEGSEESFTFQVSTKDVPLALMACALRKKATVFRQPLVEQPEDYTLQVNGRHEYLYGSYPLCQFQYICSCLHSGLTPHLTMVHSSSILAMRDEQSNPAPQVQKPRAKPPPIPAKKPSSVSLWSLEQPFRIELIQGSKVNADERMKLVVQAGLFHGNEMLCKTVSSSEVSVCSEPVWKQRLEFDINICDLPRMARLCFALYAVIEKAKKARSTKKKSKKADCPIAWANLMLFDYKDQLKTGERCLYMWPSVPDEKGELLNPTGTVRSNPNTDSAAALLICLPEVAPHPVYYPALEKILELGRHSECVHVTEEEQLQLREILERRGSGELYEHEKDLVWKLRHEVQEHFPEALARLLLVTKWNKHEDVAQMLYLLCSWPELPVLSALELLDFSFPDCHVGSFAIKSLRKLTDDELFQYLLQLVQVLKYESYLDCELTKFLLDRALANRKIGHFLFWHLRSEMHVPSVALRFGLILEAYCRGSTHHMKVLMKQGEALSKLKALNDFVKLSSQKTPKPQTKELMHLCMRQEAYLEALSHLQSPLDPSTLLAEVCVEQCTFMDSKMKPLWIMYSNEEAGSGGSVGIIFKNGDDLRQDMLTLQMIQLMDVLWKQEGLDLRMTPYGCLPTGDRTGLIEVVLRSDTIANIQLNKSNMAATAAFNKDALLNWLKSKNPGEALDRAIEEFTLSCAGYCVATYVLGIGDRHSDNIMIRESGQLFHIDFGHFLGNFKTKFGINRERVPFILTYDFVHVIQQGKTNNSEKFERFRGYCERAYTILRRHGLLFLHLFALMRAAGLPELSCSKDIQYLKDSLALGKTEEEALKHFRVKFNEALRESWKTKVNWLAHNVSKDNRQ
Chain of PI3K δ (P27986 whole entry partner): as the sequence (P27986 whole entry partner) above
T2 sequence (P42336 whole entry): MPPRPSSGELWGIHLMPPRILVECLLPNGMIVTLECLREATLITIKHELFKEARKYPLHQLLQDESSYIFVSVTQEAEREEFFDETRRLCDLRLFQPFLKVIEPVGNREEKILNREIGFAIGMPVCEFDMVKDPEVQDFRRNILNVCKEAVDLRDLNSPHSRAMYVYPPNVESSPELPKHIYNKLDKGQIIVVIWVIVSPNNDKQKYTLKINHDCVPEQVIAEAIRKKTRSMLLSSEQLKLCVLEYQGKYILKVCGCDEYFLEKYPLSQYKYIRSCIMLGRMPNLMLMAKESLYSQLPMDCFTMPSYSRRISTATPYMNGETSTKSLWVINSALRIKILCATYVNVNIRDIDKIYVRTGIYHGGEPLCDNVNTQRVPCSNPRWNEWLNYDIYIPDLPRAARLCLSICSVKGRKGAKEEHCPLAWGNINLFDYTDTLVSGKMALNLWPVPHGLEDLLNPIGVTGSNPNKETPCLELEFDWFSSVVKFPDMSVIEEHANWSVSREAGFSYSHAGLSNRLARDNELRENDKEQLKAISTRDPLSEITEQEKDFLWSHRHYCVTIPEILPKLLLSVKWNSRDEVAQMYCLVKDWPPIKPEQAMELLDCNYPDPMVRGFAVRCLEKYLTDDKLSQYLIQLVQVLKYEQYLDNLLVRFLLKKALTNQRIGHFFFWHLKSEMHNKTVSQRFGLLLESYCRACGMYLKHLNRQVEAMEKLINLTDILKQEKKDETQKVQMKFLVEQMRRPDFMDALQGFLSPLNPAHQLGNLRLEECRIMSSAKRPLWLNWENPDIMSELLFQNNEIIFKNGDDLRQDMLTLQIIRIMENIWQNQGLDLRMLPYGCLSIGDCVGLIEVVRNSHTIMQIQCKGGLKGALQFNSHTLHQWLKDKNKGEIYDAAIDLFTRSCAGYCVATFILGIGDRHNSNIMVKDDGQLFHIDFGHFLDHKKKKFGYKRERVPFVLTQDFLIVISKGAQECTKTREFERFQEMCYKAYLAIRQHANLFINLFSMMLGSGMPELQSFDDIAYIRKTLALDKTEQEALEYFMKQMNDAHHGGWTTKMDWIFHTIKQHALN
T2 sequence (P27986 whole entry partner): as the sequence (P27986 whole entry partner) above

On to `C=CC(=O)Nc1cccc(Nc2nc(Nc3ccc(OCCOC)cc3)ncc2F)c1` [AVL-292, N-(3-((5-fluoro-2-((4-(2-methoxyethoxy)phenyl)amino)pyrimidin-4-yl)amino)phenyl)acrylamide], for which the “CI50 (growth inhibition)” value is reported as “U (U=0.7 to <1)” in the assay on RPMI-8226; “U (U=0.7 to <1)” in the assay with KARPAS-299; “U (U=0.7 to <1)” in the assay with Jeko-1; “U (U=0.7 to <1)” in the assay with OCI-LY3; “W (W=≧1)” in the assay with GRANTA-519; “U (U=0.7 to <1)” with KARPAS-422. The “CI50 (growth inhibition)” value with OCI-Ly7 is “W (W=≧1)”; in the assay on NCI-H929 it was “U (U=0.7 to <1)”. The “CI50 (inhibition)” value was “W (W=≧1)” with RPMI-8226; “U (U=0.7 to <1)” in the assay on OPM-2; “U (U=0.7 to <1)” in the assay with Jeko-1; “U (U=0.7 to <1)” with HH; “W (W=≧1)” with U-2932; “W (W=≧1)” in the assay with HBL-1. For the same molecule, the “CI50 (inhibition)” value in the assay with NCI-H929 was “U (U=0.7 to <1)”.

`Cc1ccccc1-n1c(Cn2nc(I)c3c(N)ncnc32)cc2cccc(C)c2c1=O` [Compound 31] displayed a half-maximal inhibitory concentration (IC50) against PI3K δ of less than 1 µM.

On to `N#Cc1nn(Cc2cc3ccccc3c(=O)n2-c2ccccc2F)c2ncnc(N)c12` [Compound 169], for which the EC50 with B cell was less than 1 µM. Moreover, the IC50 against PI3K δ is less than 0.1 µM; at PI3K β it was greater than 10 µM; on PI3K α, greater than 10 µM; against PI3K γ, greater than 10 µM.

For the molecule `Cc1cccc2cc(C(C)n3nc(-c4cn[nH]c4)c4c(N)ncnc43)n(C3CCN(C)CC3)c(=O)c12` (stereo not shown) [Compound 226], at PI3K δ, the IC50 is less than 1 µM.

Turning to `Cc1cccc2cc(C(C)Nc3ncnc4[nH]cnc34)n(C3CCN(C)CC3)c(=O)c12` (stereo not shown) [Compound 228], the IC50 against PI3K δ was less than 1 µM; against PI3K β it was less than 10 µM.

For the molecule `Cc1cccc2cc([C@H](C)Nc3ncnc4[nH]cnc34)n(-c3ccccc3)c(=O)c12` [Compound 238], the IC50 on PI3K β was greater than 10 µM; at PI3K α, greater than 10 µM; against PI3K γ, less than 1 µM.

Turning to `CC(=O)Nc1nc2cc(-c3nn(Cc4cc5cccc(C)c5c(=O)n4-c4ccccc4)c4ncnc(N)c34)ccc2o1` [Compound 269], the IC50 against PI3K δ was less than 1 µM; on PI3K β, less than 10 µM; against PI3K γ, less than 1 µM.

Consider `Cc1cccc2cc([C@H](C)Nc3ncnc4[nH]c(Cl)cc34)n(C3CC3)c(=O)c12` [Compound 280], for which the IC50 on PI3K δ, against PI3K β, at PI3K α and on PI3K γ was greater than 10 µM in each case.

Turning to `C=CC(=O)N1CCC[C@@H](n2nc(-c3ccc(Oc4ccccc4)cc3)c3c(N)ncnc32)C1` [ibrutinib], in the assay with RL, the “CI50 (growth inhibition)” value is given as “U (U=0.7 to <1)” and the “CI50 (inhibition)” value was “W (W=≧1)”. The “CI50 (growth inhibition)” value in the assay on NCI-H929 was “U (U=0.7 to <1)”.
